Results from PubChem BioAssay (NCI).
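Tested at 5 concentrations; 48 h exposure; 96-well plates; endpoints linearly interpolated, else capped at highest concentration. TGI is the concentration that stops growth completely.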

Key:
Assay in all cases: growth of human tumour cells (NCI), 48 h
[1] = test system: OVCAR-3 ovarian
[2] = test system: CCRF-CEM leukemia
[3] = test system: SF-539 CNS
[4] = test system: UACC-62 melanoma
[5] = test system: HCC-2998 colon
[6] = test system: UACC-257 melanoma
[7] = test system: KM12 colon
[8] = test system: A498 renal
[9] = test system: HOP-62 NSCLC
[10] = test system: MDA-N
[11] = test system: HCT-15 colon
[12] = test system: NCI/ADR-RES ovarian
[13] = test system: HOP-92 NSCLC
[14] = test system: MOLT-4 leukemia
[15] = test system: T-47D breast
[16] = test system: OVCAR-4 ovarian
[17] = test system: UO-31 renal
[18] = test system: NCI-H522 lung
[19] = test system: SN12C renal
[20] = test system: SK-OV-3 ovarian
[21] = test system: SK-MEL-28 melanoma
[22] = test system: HT29 colon
[23] = test system: HL-60(TB) leukemia
[24] = test system: SF-268 CNS
[25] = test system: MDA-MB-231 breast
[26] = test system: K-562 leukemia
[27] = test system: NCI-H226 lung
[28] = test system: NCI-H23 lung
[29] = test system: SK-MEL-5 melanoma
[30] = test system: RPMI-8226 leukemia
[31] = test system: A549 NSCLC
[32] = test system: BT-549 breast
[33] = test system: MALME-3M melanoma
[34] = test system: HCT-116 colon
[35] = test system: SR leukemia
[36] = test system: DU-145 prostate
[37] = test system: OVCAR-8 ovarian
[38] = test system: IGROV1 ovarian
[39] = test system: SNB-75 CNS
[40] = test system: PC-3 prostate
[41] = test system: OVCAR-5 ovarian
[42] = test system: TK-10 renal
[43] = test system: CAKI-1 renal
[44] = test system: HS 578T breast
[45] = test system: EKVX NSCLC
[46] = test system: SF-295 CNS
[47] = test system: ACHN renal
[48] = test system: LOX IMVI melanoma
[49] = test system: SW-620 colon
[50] = test system: M14 melanoma
[51] = test system: RXF 393 renal
[52] = test system: MDA-MB-435
[53] = test system: 786-0 renal
[54] = test system: U251 CNS
[55] = test system: SK-MEL-2 melanoma
[56] = test system: COLO 205 colon
[57] = test system: NCI-H460 lung
[58] = test system: SNB-19 CNS
[59] = test system: MCF7 breast

CCCCCCCCCCCC1N=C(N)NC(CCCO)=C1C(=O)OC (stereo not drawn)
TGI [1]: 9.08 µM
TGI [2]: 3.79 µM
TGI [3]: 33.2 µM
TGI [4]: 21.5 µM
TGI [5]: 5.02 µM
TGI [6]: 11.7 µM
TGI [7]: 2.81 µM
TGI [8]: 41.6 µM
TGI [9]: 8.53 µM
TGI [10]: > 100 µM
TGI [11]: 29.7 µM
TGI [12]: 49.5 µM
TGI [13]: 10.7 µM
TGI [14]: 4.75 µM
TGI [15]: 17.5 µM
TGI [16]: 9.15 µM
TGI [17]: 38.1 µM
TGI [18]: 3.72 µM
TGI [19]: > 100 µM
TGI [20]: 8.12 µM
TGI [21]: 12.1 µM
TGI [22]: 3.05 µM
TGI [23]: 2.81 µM
TGI [24]: 5.81 µM
TGI [25]: 6.6 µM
TGI [26]: 4.49 µM
TGI [27]: 32 µM
TGI [28]: 4.94 µM
TGI [29]: 6.33 µM
TGI [30]: 4.78 µM
TGI [31]: 30.4 µM
TGI [32]: 23.1 µM
TGI [33]: > 62.2 µM
TGI [34]: 3.01 µM
TGI [35]: > 100 µM
TGI [36]: 34.6 µM
TGI [37]: 6.25 µM
TGI [38]: 4.73 µM
TGI [39]: 7.44 µM
TGI [40]: 3.93 µM
TGI [41]: 16.6 µM
TGI [42]: 12.5 µM
TGI [43]: 27.3 µM
TGI [44]: 3.39 µM
TGI [45]: 40.6 µM
TGI [46]: 8.59 µM
TGI [47]: 17.3 µM

O=C1C=CC(=O)c2c(O)c(N[C@@H](Cc3ccccc3)C(=O)OCc3ccccc3)c(Cl)c(O)c21
TGI [48]: 7.11 µM
TGI [1]: 7.15 µM
TGI [2]: > 10 µM
TGI [49]: > 10 µM
TGI [3]: 8.86 µM
TGI [4]: > 10 µM
TGI [50]: > 10 µM
TGI [5]: > 10 µM
TGI [6]: > 10 µM
TGI [51]: > 10 µM
TGI [7]: > 10 µM
TGI [8]: > 10 µM
TGI [9]: > 10 µM
TGI [52]: > 10 µM
TGI [10]: > 10 µM
TGI [11]: > 10 µM
TGI [12]: 5.62 µM
TGI [13]: > 10 µM
TGI [15]: > 10 µM
TGI [16]: > 10 µM
TGI [18]: > 10 µM
TGI [19]: > 10 µM
TGI [20]: > 10 µM
TGI [21]: > 10 µM
TGI [22]: > 10 µM
TGI [53]: > 10 µM
TGI [23]: > 10 µM
TGI [24]: > 10 µM
TGI [25]: 8.43 µM
TGI [27]: > 10 µM
TGI [28]: > 10 µM
TGI [29]: 8.18 µM
TGI [54]: > 10 µM
TGI [55]: > 10 µM
TGI [30]: > 10 µM
TGI [31]: > 10 µM
TGI [32]: > 10 µM
TGI [56]: 6.71 µM
TGI [33]: > 10 µM
TGI [34]: 4.42 µM
TGI [57]: > 10 µM
TGI [58]: > 10 µM
TGI [36]: > 10 µM
TGI [37]: > 10 µM
TGI [38]: > 10 µM
TGI [39]: > 10 µM
TGI [40]: > 10 µM
TGI [41]: > 10 µM
TGI [42]: > 10 µM
TGI [43]: > 10 µM
TGI [44]: > 10 µM
TGI [45]: > 10 µM
TGI [46]: > 10 µM
TGI [47]: > 10 µM

Cn1c(COC(=O)NC2CCCCC2)c(COC(=O)NC2CCCCC2)c2ccc3cc(Cl)c(Cl)cc3c21
TGI [48]: 30.6 µM
TGI [1]: 29.9 µM
TGI [2]: 11.3 µM
TGI [49]: 32.8 µM
TGI [3]: 42.1 µM
TGI [4]: 24.1 µM
TGI [50]: 36.7 µM
TGI [5]: 26.6 µM
TGI [6]: 29 µM
TGI [51]: 21.4 µM
TGI [7]: 36.4 µM
TGI [8]: 25.9 µM
TGI [52]: 49.4 µM
TGI [10]: 25.4 µM
TGI [11]: 24.7 µM
TGI [12]: > 100 µM
TGI [13]: 19.5 µM
TGI [14]: 54.4 µM
TGI [15]: 22.4 µM
TGI [17]: 66.7 µM
TGI [19]: 23.9 µM
TGI [20]: > 100 µM
TGI [21]: 50.2 µM
TGI [22]: 69.3 µM
TGI [53]: 30.3 µM
TGI [23]: 26.4 µM
TGI [24]: 24.5 µM
TGI [25]: 22.1 µM
TGI [26]: 15.7 µM
TGI [27]: > 100 µM
TGI [28]: 40.5 µM
TGI [59]: 16.9 µM
TGI [29]: 26.4 µM
TGI [55]: 28.5 µM
TGI [31]: > 100 µM
TGI [32]: 30.5 µM
TGI [56]: 24.6 µM
TGI [33]: 25.9 µM
TGI [34]: 23.1 µM
TGI [57]: 17.3 µM
TGI [58]: 26.1 µM
TGI [36]: 84.7 µM
TGI [37]: > 100 µM
TGI [38]: 39.1 µM
TGI [39]: 27.8 µM
TGI [40]: 32.9 µM
TGI [41]: 34.5 µM
TGI [42]: 30.6 µM
TGI [43]: 10.4 µM
TGI [44]: 23.6 µM
TGI [45]: > 100 µM
TGI [46]: > 100 µM
TGI [47]: 32.3 µM

O=C1CC(CC(OCc2ccccc2)C(COCc2ccccc2)OCc2ccccc2)CC(=O)N1 (stereo not drawn)
TGI [48]: > 100 µM
TGI [1]: > 100 µM
TGI [2]: > 100 µM
TGI [49]: > 100 µM
TGI [3]: > 100 µM
TGI [50]: > 100 µM
TGI [5]: > 100 µM
TGI [6]: > 100 µM
TGI [51]: > 100 µM
TGI [7]: > 100 µM
TGI [8]: > 100 µM
TGI [9]: > 100 µM
TGI [52]: 85 µM
TGI [10]: 82.4 µM
TGI [11]: > 100 µM
TGI [12]: 97.9 µM
TGI [13]: 86.1 µM
TGI [14]: 74.8 µM
TGI [15]: 94.5 µM
TGI [16]: > 100 µM
TGI [17]: 58.5 µM
TGI [18]: 61.7 µM
TGI [19]: > 100 µM
TGI [21]: > 100 µM
TGI [22]: 65.9 µM
TGI [53]: > 100 µM
TGI [23]: > 100 µM
TGI [24]: > 100 µM
TGI [25]: > 100 µM
TGI [26]: > 100 µM
TGI [27]: > 100 µM
TGI [28]: > 100 µM
TGI [59]: > 100 µM
TGI [29]: 30.9 µM
TGI [54]: > 100 µM
TGI [30]: > 100 µM
TGI [31]: > 100 µM
TGI [32]: 49.8 µM
TGI [56]: 39.6 µM
TGI [33]: 45.8 µM
TGI [34]: > 100 µM
TGI [57]: > 100 µM
TGI [35]: > 100 µM
TGI [36]: > 100 µM
TGI [37]: > 100 µM
TGI [38]: > 100 µM
TGI [39]: > 100 µM
TGI [40]: 63.9 µM
TGI [41]: > 100 µM
TGI [43]: 76.3 µM
TGI [44]: > 100 µM
TGI [45]: 92.8 µM
TGI [46]: > 100 µM
TGI [47]: > 100 µM
